The assay addresses T1, human GPR119 (Homo sapiens, UniProt Q8TDV5).
T1 construct: expressed in transfected cells; host or cells: HEK-293 cell line stably expressing recombinant GPR119
T1 sequence (Q8TDV5 1-335): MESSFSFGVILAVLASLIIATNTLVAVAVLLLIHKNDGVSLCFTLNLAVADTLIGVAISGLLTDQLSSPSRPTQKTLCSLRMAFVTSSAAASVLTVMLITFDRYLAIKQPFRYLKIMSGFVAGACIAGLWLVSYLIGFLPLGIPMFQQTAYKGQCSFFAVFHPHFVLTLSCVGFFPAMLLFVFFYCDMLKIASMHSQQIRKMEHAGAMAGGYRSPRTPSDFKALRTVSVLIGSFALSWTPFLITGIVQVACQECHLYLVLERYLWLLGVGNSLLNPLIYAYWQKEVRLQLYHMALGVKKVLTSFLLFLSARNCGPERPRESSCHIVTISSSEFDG
The experiment in a line: Functional cellular assay measuring GPR119-mediated cAMP release (HTRF), HEK-293 cells stably expressing recombinant GPR119. The class given is cell-based. The conditions noted are these: cell line expressing human GPR119; cAMP response, 30 minutes at room temperature. Here is the method: Functional Cellular Assays Measuring GPR119-Mediated cAMP Release.
Compounds of the invention, which are agonists of GPR119, were characterized by functional assays measuring the cAMP response of HEK-293 cell lines stably expressing recombinant GPR119 from man, mouse or rat, or by using a hamster cell line HIT-T15 expressing GPR119 endogenously. The cAMP content was determined using a kit based on homogenous time-resolved fluorescence (HTRF) from Cisbio Corp. (cat. no. 62AM4PEC). For preparation, cells were split into T175 culture flasks and grown to near confluency in medium (DMEM/10% FCS for HEK-293 cells, and F-12K medium/10% horse serum/2.5% FCS for HIT-T15 cells, respectively). Medium was then removed and cells washed with PBS lacking calcium and magnesium ions, followed by proteinase treatment with accutase (Sigma-Aldrich, cat. no. A6964). Detached cells were washed and resuspended in assay buffer (1×HBSS; 20 mM HEPES, 0.1% BSA, 2 mM IBMX) and cellular density determined. They were then diluted to 400000 cells/mL and 25 μL-aliquots dispensed to the wells of 96-well plates. For measurement, 25 μL of test compound in assay buffer was added and incubated for 30 minutes at room temperature. After addition of HTRF reagents diluted in lysis buffer, the plates were incubated for 1 hour, followed by measuring the fluorescence ratio at 665 vs. 620 nm. Potency of the agonists was quantified by determining the concentrations that caused 50% of the maximal response/activation (EC50). See Table 10 for exemplary data obtained using the cell line expressing human GPR119.
In general terms: Time-resolved FRET reads energy transfer from a long-lived donor to a nearby acceptor.
For `CC(C)CCOc1ccc(OC2CCN(c3ccc4c(c3)C(=O)CC4)C2=O)cc1` (stereo not shown) [Example 1-01], the EC50 – broadly, the midpoint of the concentration-response curve – turned out to be 385 nM.
For the molecule `O=C1CCc2ccc(N3CCC(Oc4ccc(Oc5ccc(F)cc5)cc4)C3=O)cc21` (stereo not shown) [Example 1-02], the EC50 was found to be 895 nM.
As for `O=C1CCc2c(F)cc(N3CC[C@@H](Oc4ccc(Oc5ccc(F)cc5)cc4)C3=O)cc21` [Example 1-03], the EC50 came out at 33 nM.
Under `O=C1CCc2ccc(N3CC[C@@H](Oc4ccc(Oc5ccccc5)cc4)C3=O)cc21` [Example 1-04] stands 145 nM; under `O=C1CCc2c(F)cc(N3CC[C@@H](Oc4ccc(OCCC5CC5)cc4)C3=O)cc21` [Example 1-05], 45 nM; under `O=C1CCc2ccc(N3CC[C@@H](Oc4ccc(Oc5ccc(F)cc5)nc4)C3=O)cc21` [Example 1-06], 274 nM.
The figure for `O=C1CCc2c(F)cc(N3CC[C@@H](Oc4ccc(Oc5ccc(F)cc5)nc4)C3=O)cc21` [Example 1-07] is 87 nM; for `O=C1CCc2c(F)cc(N3CC[C@@H](Oc4ccc(OCCC5CC5)nc4)C3=O)cc21` [Example 1-08, (R)-3-[6-(2-Cyclopropyl-ethoxy)-pyridin-3-yloxv]-1-(7-fluoro-3-oxo-indan-5-yl)-pyrrolidin-2-one] it is 8 nM.
Regarding `O=C1CCc2ccc(N3CC[C@@H](Oc4ccc(OCCC5CC5)nc4)C3=O)cc21` [Example 1-09], the EC50 came out at 64 nM.
Under `O=C1CCCc2ccc(N3CC[C@@H](Oc4ccc(OCCC5CC5)nc4)C3=O)cc21` [Example 1-10] stands 699 nM; under `O=C1CCc2c(F)cc(N3CC[C@@H](Oc4ccc(OCC5CC5)nc4)C3=O)cc21` [Example 1-11, (R)-3-(6-Cyclopropylmethoxy-pyridin-3-yloxy)-1-(7-fluoro-3-oxo-indan-5-yl)-pyrrolidin-2-one], 8 nM.
For `O=C1CCc2ccc(N3CC[C@@H](Oc4ccc(OCC5CC5)nc4)C3=O)cc21` [Example 1-12], the EC50 worked out at 327 nM.
The figure for `CSc1ccc(O[C@@H]2CCN(c3cc(F)c4c(c3)C(=O)CC4)C2=O)cn1` [Example 1-13] is 368 nM.
The figure for `CC(C)Sc1ccc(O[C@@H]2CCN(c3cc(F)c4c(c3)C(=O)CC4)C2=O)cn1` [Example 1-14] is 33 nM; for `CCSc1ccc(O[C@@H]2CCN(c3cc(F)c4c(c3)C(=O)CC4)C2=O)cn1` [Example 1-15] it is 70 nM; for `O=C1CCc2c(F)cc(N3CC[C@@H](Oc4ccc(-c5ncc(CO)s5)nc4)C3=O)cc21` [Example 1-16] it is 3810 nM.
The figure for `O=C1CCc2c(F)cc(N3CC[C@@H](Oc4ccc(OCc5ccccc5)nc4)C3=O)cc21` [Example 1-17] is 39 nM.
Consider `O=C1CCc2c(Br)cc(N3CC[C@@H](Oc4ccc(OCC5CC5)nc4)C3=O)cc21` [Example 1-18], for which the EC50 is 287 nM.
The figure for `Cc1c(N2CC[C@@H](Oc3ccc(OCC4CC4)nc3)C2=O)cc(F)c2c1C(=O)CC2` [Example 1-19] is 692 nM.
Under `O=C1CCc2ccc(N3CC[C@@H](Oc4ccc(OC5CC5)nc4)C3=O)cc21` [Example 1-20] stands 87 nM; under `COc1ccc(O[C@@H]2CCN(c3cc(F)c4c(c3)C(=O)CC4)C2=O)cn1` [Example 2-01], 223 nM.
As to `CCCCOc1ccc(O[C@@H]2CCN(c3cc(F)c4c(c3)C(=O)CC4)C2=O)cn1` [Example 2-02], the EC50 stood at 27 nM.
For `O=C1CCc2c(F)cc(N3CC[C@@H](Oc4ccc(OC5CCOC5)nc4)C3=O)cc21` (stereo partly shown) [Example 2-03], the EC50 was 63 nM.
`CC(C)(CO)COc1ccc(O[C@@H]2CCN(c3cc(F)c4c(c3)C(=O)CC4)C2=O)cn1` [Example 2-04]: the EC50 was found to be 233 nM.
Under `COCC(C)Oc1ccc(O[C@@H]2CCN(c3cc(F)c4c(c3)C(=O)CC4)C2=O)cn1` (stereo partly shown) [Example 2-05] stands 77 nM; under `CCCC(C)Oc1ccc(O[C@@H]2CCN(c3cc(F)c4c(c3)C(=O)CC4)C2=O)cn1` (stereo partly shown) [Example 2-06], 18 nM; under `O=C1CCc2c(F)cc(N3CC[C@@H](Oc4ccc(OC5CCOCC5)nc4)C3=O)cc21` [Example 2-07, (R)-1-(7-Fluoro-3-oxo-indan-5-yl)-3-[6-(tetrahydro-pyran-4-yloxy)-pyridin-3-yloxy]-pyrrolidin-2-one], 45 nM.
Consider `CCOc1ccc(O[C@@H]2CCN(c3cc(F)c4c(c3)C(=O)CC4)C2=O)cn1` [Example 2-08, (R)-3-(6-Ethoxy-pyridin-3-yloxy)-1-(7-fluoro-3-oxo-indan-5-yl)-pyrrolidin-2-one], for which the EC50 amounted to 17 nM.
In the case of `CC(Oc1ccc(O[C@@H]2CCN(c3cc(F)c4c(c3)C(=O)CC4)C2=O)cn1)C1CC1` (stereo partly shown) [Example 2-09], the EC50 amounted to 16 nM.
Regarding `CCC(C)COc1ccc(O[C@@H]2CCN(c3cc(F)c4c(c3)C(=O)CC4)C2=O)cn1` (stereo partly shown) [Example 2-10], the EC50 was determined as 5 nM.
On to `O=C1CCc2c(F)cc(N3CC[C@@H](Oc4ccc(OC5CCCOC5)nc4)C3=O)cc21` (stereo partly shown) [Example 2-11], for which the EC50 stood at 29 nM.
In the case of `CC1(COc2ccc(O[C@@H]3CCN(c4cc(F)c5c(c4)C(=O)CC5)C3=O)cn2)COC1` [Example 2-12], the EC50 stood at 99 nM.
For `COCCOc1ccc(O[C@@H]2CCN(c3cc(F)c4c(c3)C(=O)CC4)C2=O)cn1` [Example 2-13], the EC50 turned out to be 141 nM.
For the molecule `CCC(C)Oc1ccc(O[C@@H]2CCN(c3cc(F)c4c(c3)C(=O)CC4)C2=O)cn1` (stereo partly shown) [Example 2-14], the EC50 stood at 12 nM.
Regarding `O=C1CCc2c(F)cc(N3CC[C@@H](Oc4ccc(OCCOCCO)nc4)C3=O)cc21` [Example 2-15], the EC50 was 289 nM.
Under `O=C1CCc2c(F)cc(N3CC[C@@H](Oc4ccc(OCCCCO)nc4)C3=O)cc21` [Example 2-16] stands 832 nM.
Take `CCCCCOc1ccc(O[C@@H]2CCN(c3cc(F)c4c(c3)C(=O)CC4)C2=O)cn1` [Example 2-17]: the EC50 was found to be 16 nM.
Regarding `CCCOc1ccc(O[C@@H]2CCN(c3cc(F)c4c(c3)C(=O)CC4)C2=O)cn1` [Example 2-18], the EC50 was 5 nM.
In the case of `O=C1CCc2c(F)cc(N3CC[C@@H](Oc4ccc(OC5CCC(O)C5)nc4)C3=O)cc21` (stereo partly shown) [Example 2-19], the EC50 came out at 858 nM.
Under `CC(C)=CCOc1ccc(O[C@@H]2CCN(c3cc(F)c4c(c3)C(=O)CC4)C2=O)cn1` [Example 2-20] stands 33 nM.
The figure for `O=C1CCc2c(F)cc(N3CC[C@@H](Oc4ccc(OCCn5cccn5)nc4)C3=O)cc21` [Example 2-21] is 456 nM; for `CC(C)CCOc1ccc(O[C@@H]2CCN(c3cc(F)c4c(c3)C(=O)CC4)C2=O)cn1` [Example 2-22] it is 9 nM.
With `CC(C)COc1ccc(O[C@@H]2CCN(c3cc(F)c4c(c3)C(=O)CC4)C2=O)cn1` [Example 2-23], the 50% effective concentration (EC50) came to 7 nM.
The figure for `CC(C)Oc1ccc(O[C@@H]2CCN(c3cc(F)c4c(c3)C(=O)CC4)C2=O)cn1` [Example 2-24, (R)-1-(7-Fluoro-3-oxo-indan-5-yl)-3-(6-isopropoxy-pyridin-3-yloxy)-pyrrolidin-2-one] is 13 nM.
As to `O=C1CCc2c(F)cc(N3CC[C@@H](Oc4ccc(OCC5CCCO5)nc4)C3=O)cc21` (stereo partly shown) [Example 2-25], the EC50 was 13000 nM.
`CC1CC1COc1ccc(O[C@@H]2CCN(c3cc(F)c4c(c3)C(=O)CC4)C2=O)cn1` (stereo partly shown) [Example 2-26]: the EC50 turned out to be 11 nM.
Turning to `CCOCCOc1ccc(O[C@@H]2CCN(c3cc(F)c4c(c3)C(=O)CC4)C2=O)cn1` [Example 2-27], the EC50 is 277 nM.
As to `O=C1CCc2c(F)cc(N3CC[C@@H](Oc4ccc(OCc5ccncc5)nc4)C3=O)cc21` [Example 2-28], the EC50 was determined as 1410 nM.
The figure for `O=C1CC[C@H](COc2ccc(O[C@@H]3CCN(c4cc(F)c5c(c4)C(=O)CC5)C3=O)cn2)N1` [Example 2-29] is 11600 nM.
Under `O=C1CC[C@@H](COc2ccc(O[C@@H]3CCN(c4cc(F)c5c(c4)C(=O)CC5)C3=O)cn2)N1` [Example 2-30] stands 16300 nM; under `O=C1CCc2c(F)cc(N3CC[C@@H](Oc4ccc(OCc5cccnc5)nc4)C3=O)cc21` [Example 2-31], 1470 nM.
The figure for `O=C1CCc2c(F)cc(N3CC[C@@H](Oc4ccc(OCC5COCO5)nc4)C3=O)cc21` (stereo partly shown) [Example 2-32] is 103 nM; for `COC(C)CCOc1ccc(O[C@@H]2CCN(c3cc(F)c4c(c3)C(=O)CC4)C2=O)cn1` (stereo partly shown) [Example 2-33] it is 71 nM.
On to `CCC(C)CCOc1ccc(O[C@@H]2CCN(c3cc(F)c4c(c3)C(=O)CC4)C2=O)cn1` (stereo partly shown) [Example 2-34], for which the EC50 worked out at 23 nM.
Under `O=C1CCc2c(F)cc(N3CC[C@@H](Oc4ccc(OCC(F)F)nc4)C3=O)cc21` [Example 2-35] stands 26 nM.

The values above are taken from US8853412B2, “Pyrrolidinone derivatives as GPR119 modulators for the treatment of diabetes, obesity, dyslipidemia and related disorders” (Sanofi, priority 2012, dated 2014).
